Data set [1] concerns IL-10 production in Zymosan A-stimulated BMDCs. Put plainly: IL-10 production by Zymosan A-stimulated BMDCs. It is filed as cell-based, mouse. The note with it: read-out: IL-10 EC50, mean ± SD from ≥ 2 independent experiments.
Data set [2] concerns p-HDAC5 (Ser259) in BMDMs. The experiment in a line: HDAC5 Ser259 phosphorylation in LPS-stimulated BMDMs. The class given is cell-based, mouse. Particulars: 1 μM, 6 hr pre-incubation, LPS 30 min.
A short description of data set [3]: Serum / plasma protein binding. The class given is in vitro ADME, mouse.
Data set [4] can be described thus: Mouse liver microsome stability. Particulars: mouse liver microsomes; 1 independent experiment. (Liver microsomes are vesicles of endoplasmic reticulum, rich in cytochrome P450 enzymes.)
Data set [5] deals with BMDCs. The experiment in a line: Cellular cytotoxicity in Zymosan A-stimulated BMDCs. It is filed as cell-based, mouse.
The conditions of data set [6]: mouse, microsomes.
Data set [7] concerns C57BL/6 mice. The experiment in a line: Daily dosing for 1 week in mice: weight, serum triglycerides, adiponectin. The class given is in vivo, mouse. The note with it: wild-type mice, daily for 1 week.
For data set [8], the system named is TNFα, IL-6, IL-12p40, IL-1β in BMDCs. Put plainly: Inflammatory cytokine production by Zymosan A-stimulated BMDCs. The class given is cell-based, mouse. The note with it: 1 μM 24 hr, Zymosan A 18 hr.
A short description of data set [9]: Pharmacokinetics after IP administration in mice. The class given is in vivo. Particulars: mouse.
Data set [10] deals with LPS-stimulated C57BL/6 mice. The class given is in vivo. The note with it: mouse.
Data set [11] relates to Il10 and Nurr77 transcripts in BMDCs. The experiment in a line: CREB target gene transcripts in LPS-stimulated BMDCs. The class given is cell-based, mouse. Particulars: 1 μM, 24 hr pre-treatment.
The nature of data set [12]: PBS solubility. The class given is physicochemical.

Where two headings read alike, the source gives them in different places.

Turning to `COc1ccc(N(C(=O)Nc2c(C)cccc2C)c2cc(Nc3ccc(N4CCN(C)CC4)cc3)ncn2)c(OC)c1` [Compound 1, reference compound], the EC50 in data set [1] worked out at 220 ± 90 nM. Besides, the “LPS stimulated phosphorylation of HDAC5 at Ser259” value in data set [2] was “reduces”. This molecule also came in with a serum bound in data set [3] of more than 99%. Besides, the “MLM t1/2” value in data set [4] was found to be 0.183 h.

For the molecule `COc1ccc(N2C(=O)N(c3c(C)cccc3Cl)Cc3cnc(Nc4ccc(N5CCN(C)CC5)cc4)nc32)nc1` [Compound 3], the half-maximal effective concentration (EC50) in [1] turned out to be 11 ± 1 nM. For the same molecule, in data set [5], the “toxicity in BMDCs (in words)” value was “significantly elevated toxicity”. Also, the “MLM t1/2” value in data set [4] turned out to be 0.45 h.

Consider `COc1ccc(N2C(=O)N(c3c(C)cccc3Cl)Cc3cnc(Nc4ccc(C5CCN(C)CC5)cc4OC)nc32)nc1` [Compound 5], for which the “MLM t1/2” value in data set [6] was more than 2 h. Moreover, the “tolerability of daily injections” value in data set [7] is listed as “well tolerated”. In addition, in data set [8], the IL-1β release entry is “only modestly enhanced”, the IL-6 production result is “suppressed”, the IL-12p40 production result was “suppressed” and the TNFα production result is recorded as “suppressed”. In data set [1], the EC50 amounted to 460 ± 110 nM. For the same molecule, the “LPS stimulated phosphorylation of HDAC5 at Ser259” value in data set [2] was “reduced”. Further, in [5], the “concentrations at which non-toxic” value was not above 10 µM. For the same molecule, in [9] (IP 20 mg/Kg, 24 hour treatment period), the “changes in viability, activity or grooming” value is on record as “no obvious changes”. In addition, the “clearance t1/2” value in [9] (IP, 20 mg/Kg, serum) was more than 7 h. The “LPS-induced increase in Il6 mRNA in colon” value in data set [10] (IP 20 mg/Kg) is reported as “not affected”. The “serum IL-6 levels” value in data set [10] (IP 20 mg/Kg, LPS) is recorded as “moderately decreased”. In data set [10] (IP 20 mg/Kg, LPS 1 hour), the “increase of serum IL-10 levels” value is reported as more than 2 fold. For the same molecule, the “Tnf transcript in colon” value in data set [10] (IP 20 mg/Kg, throughout the experiment) is “reduced”. Besides, in data set [10] (IP 5 – 50 mg/Kg, 15 min before LPS 1 hour), the “phosphorylation of HDAC5 at Ser259 in total splenic leukocytes” value is on record as “dose dependently decreased”. In addition, the “abundance of TNFα in serum” value in data set [10] (IP, beginning at 5 mg/Kg, LPS 1 hour) is “dose-dependently reduced”. For the same molecule, in data set [10] (IP, beginning at the 20 mg/Kg dose), the “phosphorylation of HDAC5 at Ser259 in total splenic leukocytes, immunoblotting” value was “below the limit of detection”. In [11], the Il10 transcript level entry is listed as “increased” and the Nurr77 transcript level entry is on record as “increased”. Moreover, the PBS solubility in [12] amounted to 428 ± 11 µM.

The EC50 is the midpoint of the concentration-response curve.
